# Test results: patent publication US20260248747A1, “PHYSICAL PERFORMANCE AID” (aXichem AB, priority 2023, published 2026)
# Where “and” joins values, the source holds several entries; their conditions need not be identical. Equal values may be shown once. Entries after “also recorded” stand apart in the source; their conditions may differ.
# Key:
# [1] = high-dose oral encapsulated capsaicin, 25.8 mg; cited from earlier work
# [2] = 1.2 mg purified capsaicin in gummy format; isokinetic knee extension; cited from earlier work
# trained men = details: acute 12 mg capsaicin; squat exercise; cited from earlier work
# resistance trained men [3] = tested on: resistance trained men; set-up: species or system human; details: in vivo
# resistance trained men [4] = tested on: resistance trained men; set-up: species or system human; details: in vivo
# resistance trained men [5] = tested on: resistance trained men; set-up: species or system human; details: in vivo; remark: listed apart in the source
# resistance trained men [6] = tested on: resistance trained men; set-up: species or system human; details: in vivo, po
# [7] = tested on: healthy men with resistance training experience; set-up: species or system human; details: in vivo
# resistance trained men [8] = tested on: resistance trained men; set-up: species or system human; details: in vivo; remark: listed apart in the source
# [9] = tested on: healthy men with resistance training experience; set-up: species or system human; details: in vivo; remark: listed apart in the source
# [10] = tested on: healthy men with resistance training experience; set-up: species or system human; details: in vivo; remark: listed apart in the source
# [11] = tested on: healthy men with resistance training experience; set-up: species or system human; details: in vivo; remark: listed apart in the source
compound,measurement,setting,value
"COc1cc(CNC(=O)CCCC/C=C/C(C)C)ccc1O [capsaicin, 8-methyl-N-vanillyl-trans-6-nonenamide]",tolerability after oral supplementation,[1],intestinal discomfort
same,summed torque or fatigue index,[2],did not reach significant differences
same,number of repetitions until failure,trained men,increased significantly
same,rated perceived exertion overall body (RPE-OB),trained men,reduced
same,total weight lifted,trained men,increased significantly
phenylcapsaicyn,"60% fastest velocity, post-hoc Bonferroni comparison",resistance trained men [3],significant differences between LD and PLA
same,60% fastest-V,resistance trained men [3],0.97 ± 0.07 m · s^−1 and 0.96 ± 0.07 m · s^−1
same,Fastest-V,resistance trained men [3],0.87 ± 0.03 m · s^−1 and 0.80 ± 0.06 m · s^−1
same,Mean-Vt,resistance trained men [3],0.61 ± 0.07 m · s^−1 and 0.64 ± 0.07 m · s^−1
same,Repetitions performed in the protocol,resistance trained men [3],24 ± 0.00
same,Slowest-Vt,resistance trained men [3],0.45 ± 0.09 m · s^−1 and 0.49 ± 0.09 m · s^−1
same,Weight,resistance trained men [3],87.69 ± 15.87 kg and 87.57 ± 14.69 kg
same,"maximal velocity loss, post-hoc Bonferroni comparison",resistance trained men [3],significant differences between HD and LD
same,"mean velocity, post-hoc Bonferroni comparison",resistance trained men [3],almost was achieved between HD and PLA
same,"percentage of change for urea values, post-hoc Wilcoxon comparison",resistance trained men [4],significant higher percentage of change for LID compared to PLA
same,Urea,resistance trained men [4]; po,40.77 ± 14.17 mg/dL and 37.48 ± 18.18 mg/dL and 29.77 ± 10.67 mg/dL and 30.31 ± 10.41 mg/dL
same,"PRS, one-way repeated measures ANOVA between conditions",resistance trained men [5],no differences between conditions
same,"RPE-AM (local RPE in quadriceps), Bonferroni post-hoc comparison",resistance trained men [5],significant differences
same,"RPE-OB, Bonferroni post-hoc analyses between conditions",resistance trained men [5],no significant differences
same,"perceived exertion for the active muscle, RPE-AM",resistance trained men [5],reduced perceived exertion for the active muscle
same,Lactate (% change),resistance trained men [6],663.97 ± 352.36% and 653.16 ± 307.31%
same,60% load MDF VLA,[7],94.20 ± 12.57% and 92.43 ± 15.57% and 87.66 ± 11.86% and 87.61 ± 11.16% and 89.62 ± 12.28% and 94.85 ± 19.89%
same,60% load MDF VM,[7],93.24 ± 12.84% and 87.62 ± 9.55% and 88.27 ± 13.74% and 87.29 ± 15.23% and 88.62 ± 16.06% and 84.97 ± 10.64%
same,60% load RMS VLA,[7],131.16 ± 36.34% and 144.45 ± 50.27% and 119.38 ± 47.67% and 103.95 ± 49.44% and 149.81 ± 47.00% and 133.16 ± 33.21%
same,"60% load RMS VLA, post-hoc Bonferroni comparison",[7],significant differences between PLA and LID
same,60% load RMS VM,[7],131.17 ± 29.13% and 120.88 ± 31.08% and 117.18 ± 19.75% and 112.41 ± 42.15% and 133.87 ± 43.81% and 138.30 ± 47.06%
same,Isometric MDF VLA,[7],98.12 ± 9.79% and 99.07 ± 13.42% and 97.78 ± 9.79% and 100.39 ± 12.86%
same,Isometric MDF VM,[7],93.75 ± 11.10% and 91.04 ± 14.79% and 97.28 ± 13.72% and 101.88 ± 18.22%
same,Isometric RMS VLA,[7],99.88 ± 41.48% and 99.21 ± 50.39% and 126.91 ± 33.50% and 100.25 ± 25.60%
same,Isometric RMS VM,[7],120.01 ± 58.48% and 118.65 ± 41.54% and 113.38 ± 24.62% and 102.79 ± 32.43%
same,Training MDF VLA,[7],89.90 ± 10.21% and 90.47 ± 12.71% and 88.36 ± 11.03% and 89.99 ± 12.70% and 86.91 ± 9.27% and 89.91 ± 11.39%
same,Training MDF VM,[7],85.63 ± 11.87% and 91.01 ± 15.42% and 84.07 ± 11.93% and 90.42 ± 18.35% and 83.74 ± 9.68% and 90.58 ± 15.25%
same,Training RMS VLA,[7],123.84 ± 34.86% and 121.24 ± 36.40% and 146.42 ± 47.13% and 119.29 ± 38.40% and 135.14 ± 53.99% and 107.20 ± 42.77%
same,Training RMS VM,[7],128.39 ± 50.89% and 111.81 ± 31.90% and 132.39 ± 40.98% and 109.58 ± 36.84% and 138.04 ± 55.37% and 107.44 ± 35.96%
same,"training RMS VM, post-hoc Bonferroni comparison",[7],significant differences were found between HD and LID
same,"AST post values, post-hoc Wilcoxon comparison",resistance trained men [8],significant higher post levels of AST for PLA compared to HD
same,AST,resistance trained men [8]; po,17.40 ± 11.25 U/L and 16.37 ± 11.29 U/L and 27.06 ± 14.66 U/L and 22.39 ± 10.86 U/L
same,AST (% change),resistance trained men [8]; po,119.62 ± 166.08% and 110.21 ± 167.16%
same,60% load MFP best,[9],950.82 ± 170.05 N and 945.34 ± 152.48 N and 907.38 ± 148.53 N and 903.85 ± 155.90 N and 930.60 ± 146.67 N and 936.27 ± 149.32 N
same,60% load MPP best,[9],822.00 ± 166.47 W and 810.71 ± 157.90 W and 688.32 ± 166.67 W and 698.67 ± 180.46 W and 796.70 ± 149.05 W and 798.56 ± 170.19 W
same,60% load MPV best,[9],0.93 ± 0.06 m/s and 0.80 ± 0.08 m/s and 0.81 ± 0.12 m/s and 0.93 ± 0.09 m/s and 0.91 ± 0.08 m/s
same,% VL (percentage of velocity loss during a set),[9],29.78 ± 10.90% and 26.62 ± 9.37% and 30.91 ± 10.24% and 26.65 ± 11.73% and 34.36 ± 12.15%
same,MFP mean,[9],974.60 ± 162.62 N and 962.14 ± 148.59 N and 950.75 ± 161.58 N and 942.66 ± 141.94 N and 941.04 ± 156.67 N and 931.41 ± 141.91 N
same,MPP Best,[9],770.42 ± 151.29 W and 744.70 ± 169.44 W and 694.45 ± 160.43 W and 701.32 ± 147.81 W and 681.99 ± 149.20 W and 683.86 ± 141.59 W
same,MPP mean,[9],626.70 ± 147.11 W and 612.99 ± 145.84 W and 559.89 ± 128.61 W and 583.27 ± 128.14 W and 539.99 ± 126.34 W and 548.46 ± 135.58 W
same,MPV best,[9],0.78 ± 0.05 m/s and 0.79 ± 0.06 m/s and 0.72 ± 0.07 m/s and 0.74 ± 0.07 m/s and 0.71 ± 0.07 m/s and 0.73 ± 0.05 m/s
same,MPV mean,[9],0.66 ± 0.07 m/s and 0.68 ± 0.07 m/s and 0.60 ± 0.07 m/s and 0.64 ± 0.08 m/s and 0.58 ± 0.08 m/s and 0.61 ± 0.08 m/s
same,"MPV of individual repetitions, post-hoc Bonferroni",[9],differences between HD and PLA in repetition 23; also recorded: HD and LD in repetitions 15 and 16
same,Total volume load,[9],"2,014.57 ± 380.94 kg"
same,MIF,[10],"1,175.92 ± 370.86 N and 1,182.71 ± 429.84 N and 1,063.035 ± 265.86 N and 1,091.67 ± 331.61 N and 1,084.25 ± 375.82 N and 1,131.50 ± 420.02 N"
same,RFD0-50,[10],"2,765.42 ± 1,725.44 N · s^1 and 2,544.07 ± 1,150.29 N · s^1 and 2,335.85 ± 1,408.53 N · s^1 and 2,375.33 ± 1,172.75 N · s^1 and 2,006.35 ± 773.62 N · s^1 and 2,190.07 ± 1,249.61 N · s^1"
same,RFD0-100,[10],"2,921.42 ± 1,353.33 N · s^1 and 2,585.57 ± 1,998.95 N · s^1 and 2,320.43 ± 1,229.46 N · s^1 and 1,968.46 ± 1,373.43 N · s^1 and 2,129.25 ± 942.03 N · s^1 and 2,377.32 ± 1,196.68 N · s^1"
same,RFD0-150,[10],"2,958.42 ± 1,280.93 N · s^1 and 2,635.67 ± 1,075.21 N · s^1 and 2,388.16 ± 1,184.60 N · s^1 and 2,129.54 ± 1,279.24 N · s^1 and 2,260.47 ± 1,032.89 N · s^1 and 2,450.52 ± 1,275.39 N · s^1"
same,RFD0-200,[10],"2,697.29 ± 1,219.14 N · s^1 and 2,456.98 ± 1,052.11 N · s^1 and 2,178.30 ± 1,101.08 N · s^1 and 1,973.26 ± 1,214.84 N · s^1 and 2,067.32 ± 978.09 N · s^1 and 2,361.75 ± 1,214.58 N · s^1"
same,RFD0-400,[10],"1,764.86 ± 898.55 N · s^1 and 1,784.80 ± 809.39 N · s^1 and 1,489.55 ± 733.99 N · s^1 and 1,521.34 ± 853.94 N · s^1 and 1,610.34 ± 773.99 N · s^1 and 1,664.43 ± 912.04 N · s^1"
same,"isometric mechanical outcomes (MIF, RFD), two-way repeated measures ANOVAs",[10],no significant differences for any outcome
same,"CMJ height post values, post-hoc Wilcoxon comparison",[11],significant differences
same,countermovement jump (CMJ) post and post 24 stages,[11],exhibited higher values
same,"percentage of change in CMJ from pre to post values, post-hoc analyses",[11],did not reach any significant difference
